Target: T1, Nav1.7 (or SCN9A) channel; HEK cells stably transfected with hSCN9A (Homo sapiens, UniProt Q15858)
T1 construct: expressed in transfected cells
Assay: Nav1.7 block, PatchXpress 7000 automated whole-cell voltage clamp, estimated IC50 (EIC50)
Assay type: cell-based
Conditions: PatchXpress platform; hSCN9A HEK cells held at V1/2 of inactivation; estimated IC50

T1 sequence (Q15858 whole entry): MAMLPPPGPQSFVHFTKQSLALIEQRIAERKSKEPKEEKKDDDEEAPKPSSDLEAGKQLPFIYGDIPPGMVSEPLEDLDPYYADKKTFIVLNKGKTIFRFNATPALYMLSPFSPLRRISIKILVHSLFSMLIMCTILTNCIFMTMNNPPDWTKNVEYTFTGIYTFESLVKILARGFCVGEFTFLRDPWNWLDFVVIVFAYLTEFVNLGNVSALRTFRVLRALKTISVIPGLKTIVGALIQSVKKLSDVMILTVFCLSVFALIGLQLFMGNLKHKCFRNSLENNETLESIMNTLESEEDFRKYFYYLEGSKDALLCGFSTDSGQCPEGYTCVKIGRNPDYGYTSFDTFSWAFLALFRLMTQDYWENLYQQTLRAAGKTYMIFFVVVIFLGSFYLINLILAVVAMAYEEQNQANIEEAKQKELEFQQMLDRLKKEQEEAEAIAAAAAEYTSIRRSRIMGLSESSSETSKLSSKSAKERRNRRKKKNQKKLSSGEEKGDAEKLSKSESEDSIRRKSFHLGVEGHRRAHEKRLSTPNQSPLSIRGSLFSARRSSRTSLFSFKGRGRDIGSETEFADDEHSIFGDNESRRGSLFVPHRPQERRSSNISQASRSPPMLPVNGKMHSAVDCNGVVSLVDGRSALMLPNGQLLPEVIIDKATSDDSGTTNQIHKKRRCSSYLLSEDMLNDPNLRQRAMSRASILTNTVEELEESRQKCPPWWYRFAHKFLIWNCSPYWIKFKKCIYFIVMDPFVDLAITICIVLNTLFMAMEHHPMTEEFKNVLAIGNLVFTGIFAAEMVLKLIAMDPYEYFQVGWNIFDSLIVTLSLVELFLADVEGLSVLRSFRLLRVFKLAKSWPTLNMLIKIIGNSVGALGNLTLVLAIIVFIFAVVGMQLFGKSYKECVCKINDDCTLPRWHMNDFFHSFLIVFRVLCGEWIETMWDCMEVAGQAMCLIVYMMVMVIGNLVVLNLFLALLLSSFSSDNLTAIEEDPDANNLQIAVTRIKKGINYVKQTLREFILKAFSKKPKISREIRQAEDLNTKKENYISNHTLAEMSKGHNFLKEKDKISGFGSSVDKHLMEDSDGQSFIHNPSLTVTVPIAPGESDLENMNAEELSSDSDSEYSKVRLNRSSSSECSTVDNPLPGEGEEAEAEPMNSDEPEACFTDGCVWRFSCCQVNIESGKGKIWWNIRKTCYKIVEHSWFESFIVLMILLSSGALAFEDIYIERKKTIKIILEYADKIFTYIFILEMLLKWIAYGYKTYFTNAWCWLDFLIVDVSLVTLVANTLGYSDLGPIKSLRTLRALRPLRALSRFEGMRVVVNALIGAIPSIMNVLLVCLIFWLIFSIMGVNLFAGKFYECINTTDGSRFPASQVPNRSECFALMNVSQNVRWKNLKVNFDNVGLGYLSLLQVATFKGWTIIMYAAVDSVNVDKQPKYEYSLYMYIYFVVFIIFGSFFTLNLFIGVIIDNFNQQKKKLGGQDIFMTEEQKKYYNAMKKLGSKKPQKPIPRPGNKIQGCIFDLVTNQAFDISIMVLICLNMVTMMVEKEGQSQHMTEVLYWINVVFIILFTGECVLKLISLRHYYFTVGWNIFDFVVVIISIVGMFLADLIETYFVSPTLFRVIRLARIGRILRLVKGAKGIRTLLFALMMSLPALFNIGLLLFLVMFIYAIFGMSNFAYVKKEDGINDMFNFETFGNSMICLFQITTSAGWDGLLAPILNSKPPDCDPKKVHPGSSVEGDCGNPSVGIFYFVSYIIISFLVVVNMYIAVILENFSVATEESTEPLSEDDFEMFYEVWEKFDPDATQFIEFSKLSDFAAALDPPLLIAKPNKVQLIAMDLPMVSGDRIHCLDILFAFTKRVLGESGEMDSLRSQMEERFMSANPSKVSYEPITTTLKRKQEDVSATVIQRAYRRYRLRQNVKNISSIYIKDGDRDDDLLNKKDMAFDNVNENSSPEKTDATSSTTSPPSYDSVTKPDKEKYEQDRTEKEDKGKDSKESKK

Compound	IC50 [nM]
N#Cc1cc(S(=O)(=O)Nc2ncns2)ccc1Oc1ccc(CC2CC2)cc1 [Example 60, 3-cyano-4-[4-(cyclopropylmethyl)phenoxy]-N-1,2,4-thiadiazol-5-ylbenzenesulfonamide]	2790
N#Cc1cc(S(=O)(=O)Nc2ncns2)ccc1Oc1ccc(CN2CCC2)cc1F [Example 61, 4-[4-(azetidin-1-ylmethyl)-2-fluorophenoxy]-3-cyano-N-1,2,4-thiadiazol-5-ylbenzenesulfonamide]	25700
Cc1n[nH]c(C)c1-c1ccccc1Oc1ccc(S(=O)(=O)Nc2ncns2)cc1C#N [Example 62, 3-cyano-4-[2-(3,5-dimethyl-1H-pyrazol-4-yl)phenoxy]-N-1,2,4-thiadiazol-5-ylbenzenesulfonamide]	3980
N#Cc1cc(S(=O)(=O)Nc2ncns2)ccc1Oc1ccccc1Oc1ccncc1 [Example 63, 3-cyano-4-[2-(pyridin-4-yloxy)phenoxy]-N-1,2,4-thiadiazol-5-ylbenzenesulfonamide]	2350
Cn1cc(-c2ccc(Cl)cc2)c(Oc2ccc(S(=O)(=O)Nc3ncns3)cc2C#N)n1 [Example 64, 4-{[4-(4-chlorophenyl)-1-methyl-1H-pyrazol-3-yl]oxy}-3-cyano-N-1,2,4-thiadiazol-5-ylbenzenesulfonamide]	780
COc1ccc(-n2cc(Oc3ccc(S(=O)(=O)Nc4ncns4)cc3C#N)c(C(C)C)n2)cc1 [Example 65, 3-cyano-4-{[3-isopropyl-1-(4-methoxyphenyl)-1H-pyrazol-4-yl]oxy}-N-1,2,4-thiadiazol-5-ylbenzenesulfonamide]	12200
Cc1cn(Cc2ccccc2)nc1Oc1ccc(S(=O)(=O)Nc2ncns2)cc1C#N [Example 66, 4-[(1-benzyl-4-methyl-1H-pyrazol-3-yl)oxy]-3-cyano-N-1,2,4-thiadiazol-5-ylbenzenesulfonamide]	2660
CC(C)c1nn(-c2ccccc2Cl)cc1Oc1ccc(S(=O)(=O)Nc2ncns2)cc1C#N [Example 67, 4-{[1-(2-chlorophenyl)-3-isopropyl-1H-pyrazol-4-yl]oxy}-3-cyano-N-1,2,4-thiadiazol-5-ylbenzenesulfonamide]	4220
N#Cc1cc(S(=O)(=O)Nc2ncns2)ccc1Oc1ccccc1Oc1ccccc1 [Example 68, 3-cyano-4-(2-phenoxyphenoxy)-N-1,2,4-thiadiazol-5-ylbenzenesulfonamide]	770
CN1C(=O)CCC1c1ccccc1Oc1ccc(S(=O)(=O)Nc2ncns2)cc1C#N (stereo not drawn) [Example 69, 3-cyano-4-[2-(1-methyl-5-oxopyrrolidin-2-yl)phenoxy]-N-1,2,4-thiadiazol-5-ylbenzenesulfonamide]	36100
Cn1nccc1-c1ccccc1Oc1ccc(S(=O)(=O)Nc2ncns2)cc1C#N [Example 70, 3-cyano-4-[2-(1-methyl-1H-pyrazol-5-yl)phenoxy]-N-1,2,4-thiadiazol-5-ylbenzenesulfonamide]	110
Cn1nccc1-c1cc(Cl)cc(Cl)c1Oc1ccc(S(=O)(=O)Nc2ncns2)cc1C#N [Example 71, 3-cyano-4-[2,4-dichloro-6-(1-methyl-1H-pyrazol-5-yl)phenoxy]-N-1,2,4-thiadiazol-5-ylbenzenesulfonamide]	12500
CCn1nc(C)c(-c2ccccc2Oc2ccc(S(=O)(=O)Nc3ncns3)cc2C#N)c1C [Example 72, 3-cyano-4-[2-(1-ethyl-3,5-dimethyl-1H-pyrazol-4-yl)phenoxy]-N-1,2,4-thiadiazol-5-ylbenzenesulfonamide]	>300
Cn1nccc1-c1cc(F)cc(F)c1Oc1ccc(S(=O)(=O)Nc2ncns2)cc1C#N [Example 73, 3-cyano-4-[2,4-difluoro-6-(1-methyl-1H-pyrazol-5-yl)phenoxy]-N-1,2,4-thiadiazol-5-ylbenzenesulfonamide]	23400
N#Cc1cc(S(=O)(=O)Nc2ncns2)ccc1Oc1cc(F)ccc1Oc1ccccc1 [Example 74, 3-cyano-4-(5-fluoro-2-phenoxyphenoxy)-N-1,2,4-thiadiazol-5-ylbenzenesulfonamide]	1110
COc1cc(C)ccc1Oc1cccc(F)c1Oc1ccc(S(=O)(=O)Nc2ncns2)cc1C#N [Example 75, 3-cyano-4-[2-fluoro-6-(2-methoxy-4-methylphenoxy)phenoxy]-N-1,2,4-thiadiazol-5-ylbenzenesulfonamide]	3340
N#Cc1cc(S(=O)(=O)Nc2ncns2)ccc1Oc1ccccc1Oc1ccccc1C(N)=O [Example 76, 2-(2-{2-cyano-4-[(1,2,4-thiadiazol-5-yl-amino)sulfonyl]phenoxy}phenoxy)benzamide]	>10000
N#Cc1cc(S(=O)(=O)Nc2ncns2)ccc1Oc1ccccc1Oc1ccc(F)cc1 [Example 77, 3-cyano-4-[2-(4-fluorophenoxy)phenoxy]-N-1,2,4-thiadiazol-5-ylbenzenesulfonamide]	360
Cc1ccc(Oc2ccc(C#N)cc2)c(Oc2ccc(S(=O)(=O)Nc3ncns3)cc2C#N)c1 [Example 78, 3-cyano-4-[2-(4-cyanophenoxy)-5-methylphenoxy]-N-1,2,4-thiadiazol-5-ylbenzenesulfonamide]	600
N#Cc1cc(S(=O)(=O)Nc2ncns2)ccc1Oc1ccc(Cl)cc1Oc1ccccc1 [Example 79, 4-(4-chloro-2-phenoxyphenoxy)-3-cyano-N-1,2,4-thiadiazol-5-ylbenzenesulfonamide]	450
N#Cc1cc(S(=O)(=O)Nc2ncns2)ccc1Oc1cc(C(F)(F)F)nn1Cc1ccccc1 [Example 80, 4-{[1-benzyl-3-(trifluoromethyl)-1H-pyrazol-5-yl]oxy}-3-cyano-N-1,2,4-thiadiazol-5-ylbenzenesulfonamide]	>300
N#Cc1cc(S(=O)(=O)Nc2ncns2)ccc1Oc1cc(C(F)(F)F)nn1-c1ccccc1 [Example 81, 3-cyano-4-{[1-phenyl-3-(trifluoromethyl)-1H-pyrazol-5-yl]oxy}-N-1,2,4-thiadiazol-5-ylbenzenesulfonamide]	510
Cn1nc(-c2ccccc2)cc1Oc1ccc(S(=O)(=O)Nc2ncns2)cc1C#N [Example 82, 3-cyano-4-[(1-methyl-3-phenyl-1H-pyrazol-5-yl)oxy]-N-1,2,4-thiadiazol-5-ylbenzenesulfonamide]	37200
CC(C)(C)n1nccc1-c1c(F)cccc1Oc1ccc(S(=O)(=O)Nc2ncns2)cc1C#N [Example 83, 4-[2-(1-tert-butyl-1H-pyrazol-5-yl)-3-fluorophenoxy]-3-cyano-N-1,2,4-thiadiazol-5-ylbenzenesulfonamide]	2450
CC(C)(C)n1ccc(-c2c(F)cccc2Oc2ccc(S(=O)(=O)Nc3ncns3)cc2C#N)n1 [Example 84, 4-[2-(1-tert-Butyl-1H-pyrazol-3-yl)-3-fluoro-phenoxy]-3-cyano-N-[1,2,4]thiadiazol-5-yl-benzene-sulfonamide]	>10000
Cn1ccc(-c2c(F)cccc2Oc2ccc(S(=O)(=O)Nc3ncns3)cc2C#N)n1 [Example 85, 3-Cyano-4-[3-fluoro-2-(1-methyl-1H-pyrazol-3-yl)-phenoxy]-N-[1,2,4]thiadiazol-5-yl-benzene-sulfonamide]	1430
Cn1nccc1-c1c(F)cccc1Oc1ccc(S(=O)(=O)Nc2ncns2)cc1C#N [Example 86, 3-cyano-4-[3-fluoro-2-(1-methyl-1H-pyrazol-5-yl)phenoxy]-N-1,2,4-thiadiazol-5-ylbenzenesulfonamide]	1880
